The assay has as its target T1, LRRK2^KW (Homo sapiens, UniProt Q5S007).
T1 construct: LRRK2 R1847 to E2527; His6-Z-tag (TEV cleavable) (N, cleaved yes); host or cells: Sf9 insect cells (baculovirus)
T1 sequence (Q5S007 1847-2527): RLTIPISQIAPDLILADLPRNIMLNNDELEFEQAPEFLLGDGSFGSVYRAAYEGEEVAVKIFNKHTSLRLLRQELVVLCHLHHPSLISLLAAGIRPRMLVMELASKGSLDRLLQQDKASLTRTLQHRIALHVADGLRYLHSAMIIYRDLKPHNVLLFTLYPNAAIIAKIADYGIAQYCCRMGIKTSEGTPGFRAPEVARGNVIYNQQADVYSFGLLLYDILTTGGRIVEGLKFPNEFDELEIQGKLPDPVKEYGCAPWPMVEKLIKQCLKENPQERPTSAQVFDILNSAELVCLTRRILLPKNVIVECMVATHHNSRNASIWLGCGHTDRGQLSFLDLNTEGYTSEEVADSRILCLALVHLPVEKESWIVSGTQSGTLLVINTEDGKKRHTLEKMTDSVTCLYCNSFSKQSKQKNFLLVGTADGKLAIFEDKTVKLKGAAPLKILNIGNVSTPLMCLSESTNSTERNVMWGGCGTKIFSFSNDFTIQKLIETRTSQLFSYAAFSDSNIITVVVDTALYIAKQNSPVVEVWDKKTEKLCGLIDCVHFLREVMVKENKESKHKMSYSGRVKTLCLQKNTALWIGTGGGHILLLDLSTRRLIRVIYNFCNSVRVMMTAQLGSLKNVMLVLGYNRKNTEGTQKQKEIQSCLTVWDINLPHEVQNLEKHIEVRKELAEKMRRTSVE
Nature of the assay: DSF thermal stabilization of LRRK2^KW. The assay is classed as binding. Conditions: screen of 31 type-II inhibitors, Table S1. The protocol:
To characterize binding between small molecules and LRRK2^KW, induced thermal stabilization was measured by DSF according to previously established protocols ([47]). In brief, LRRK2^KW was diluted to 4 μM in 20 mM Hepes (pH 7.4), 150 mM NaCl, 0.5 mM TCEP, 0.5% glycerol, 20 μM GDP, and 2.5 mM MgCl2, and SYPRO Orange was added (1:1000, MilliporeSigma). Inhibitor (10 μM) to be tested was added to a final sample volume of 20 μl per well of a 96-well plate (white, Starlab). […] The fluorescence was plotted against the temperature, and the melting point (Tm) was determined as the minimum of the first derivative relative to the control.

SMILES strings stand for the structures.

As for `Cc1cn(-c2cc(NC(=O)c3ccc(C)c(Nc4nccc(-c5cccnc5)n4)c3)cc(C(F)(F)F)c2)cn1` [Nilotinib, reference compound], the “dTm LRRK2(KW) [K]” value is listed as -2.5 K.
Take `COC(=O)c1ccc2c(c1)NC(=O)/C2=C(\Nc1ccc(N(C)C(=O)CN2CCN(C)CC2)cc1)c1ccccc1` [Nintedanib, reference compound]: the “dTm LRRK2(KW) [K]” value is 5 K.
In the case of `CCN1CCN(Cc2ccc(NC(=O)c3ccc(C)c(NC(=O)c4cncc(-c5cccs5)c4)c3)cc2C(F)(F)F)CC1` [ALW-II-41-27, reference compound], the “dTm LRRK2(KW) [K]” value is recorded as -0.5 K.
For `COc1cc(Oc2ccnc3cc(OC)c(OC)cc23)ccc1NC(=O)NC(C)c1nccs1` (centres unmarked) [KI20227, reference compound], the “dTm LRRK2(KW) [K]” value is given as 3 K.
On to `N#CC1(c2ccc(NC(=O)c3cccnc3NCc3ccncc3)cc2)CCCC1` [Apatinib, reference compound], for which the “dTm LRRK2(KW) [K]” value is reported as -1 K.
Consider `FC(F)(F)c1ccc(CNc2ccc(Cc3c[nH]c4ncc(Cl)cc34)cn2)cn1` [Pexidartinib, reference compound], for which the “dTm LRRK2(KW) [K]” value was determined as 6.8 K.
For `Cc1ccc(NC(=O)c2ccc(CN3CCN(C)CC3)cc2)cc1Nc1nc(-c2cccnc2)cs1` [Masitinib, reference compound] the value was 0 K; for `Cc1csc(-c2nnc(Nc3ccc(Oc4ncccc4-c4ccnc(N)n4)cc3)c3ccccc23)c1` [AMG 900, reference compound], 4.5 K; for `COc1cc2nccc(Oc3ccc(NC(=O)Nc4cc(C)on4)c(Cl)c3)c2cc1OC` [Tivozanib (AV-951), reference compound], 11.5 K.
To `COc1cc2nccc(Oc3ccc(NC(=O)C4(C(=O)Nc5ccc(F)cc5)CC4)cc3)c2cc1OC` [Cabozantinib, reference compound] belongs 7.5 K; to `O=C(Nc1ccc(OC(F)(F)F)cc1)c1sccc1NCc1ccnc2ccccc12` [OSI-930, reference compound], 0 K.
As to `Cc1ccc(-n2nc(C(C)(C)C)cc2NC(=O)Nc2cc(COc3cccnc3)[nH]n2)cc1` [PF-4618433, reference compound], the “dTm LRRK2(KW) [K]” value is recorded as 11 K.
As for `CC(C)(C)c1cc(NC(=O)Nc2ccc(-c3cn4c(n3)sc3cc(OCCN5CCOCC5)ccc34)cc2)no1` [Quizartinib, reference compound], the “dTm LRRK2(KW) [K]” value is recorded as 3.5 K.
As for `CCOc1ccn(-c2ccc(F)cc2)c(=O)c1C(=O)Nc1ccc(Oc2ccnc(N)c2Cl)c(F)c1` [BMS 777607, reference compound], the “dTm LRRK2(KW) [K]” value is 6.8 K.
Turning to `CN1CCN(C2CCN(C(=O)Nc3cc(Oc4ccc(NC(=O)C5(C(=O)Nc6ccc(F)cc6)CC5)c(F)c4)ccn3)CC2)CC1` [Golvatinib, reference compound], the “dTm LRRK2(KW) [K]” value worked out at 0.5 K.
For `Cc1ccc(-n2nc(C(C)(C)C)cc2NC(=O)Nc2ccc(OCCN3CCOCC3)c3ccccc23)cc1` [BIRB-796, reference compound] the value was 0 K; for `CCN1CCN(Cc2ccc(NC(=O)Nc3ccc(Oc4cc(NC)ncn4)cc3)cc2C(F)(F)F)CC1` [AST-487, reference compound], 10 K.
For `Cc1ccc(F)c(NC(=O)Nc2ccc(-c3cccc4[nH]nc(N)c34)cc2)c1` [Linifanib, reference compound] the value was 5.8 K.
With `CC1(C)CNc2cc(NC(=O)c3cccnc3NCc3ccncc3)ccc21` [Motesanib, reference compound], the “dTm LRRK2(KW) [K]” value is reported as -0.5 K.
For `Cc1ccc(NC(=O)c2cccc(N(C)C)c2)cc1NC(=O)c1ccc(O)cc1` [ZM336372, reference compound] the value was -1 K.
For the compound `Cc1ccc(NC(=O)c2ccc(CN3CCN(C)CC3)cc2)cc1Nc1nccc(-c2cccnc2)n1` [Imatinib, reference compound], the “dTm LRRK2(KW) [K]” value is listed as 0 K.
For the compound `CNC(=O)c1ccccc1Sc1ccc2c(/C=C/c3ccccn3)n[nH]c2c1` [Axitinib, reference compound], the “dTm LRRK2(KW) [K]” value was determined as 7.5 K.
With `Cc1ccc(NC(=O)c2cccc(C(C)(C)C#N)c2)cc1Nc1ccc2ncn(C)c(=O)c2c1` [AZ 628, reference compound], the “dTm LRRK2(KW) [K]” value is given as -0.5 K.
As for `CNC(=O)c1cc(Oc2ccc(NC(=O)Nc3ccc(Cl)c(C(F)(F)F)c3)c(F)c2)ccn1` [Regorafinib, reference compound], the “dTm LRRK2(KW) [K]” value came out at 5.5 K.
Turning to `Cc1ccc(C(=O)Nc2cccc(C(F)(F)F)c2)cc1Nc1nc(-c2cccnc2)nc2c1cnn2C` [NVP-BHG712, reference compound], the “dTm LRRK2(KW) [K]” value is listed as -0.5 K.
For `COc1cc2c(Nc3ccc(NC(=O)c4ccccc4)cc3)ncnc2cc1OCCCN1CCOCC1` [ZM447439, reference compound], the “dTm LRRK2(KW) [K]” value is reported as 6.5 K.
